# Laboratory results as given in US12421252B2, “Spiro (isobenzofuranazetidine) compounds for the treatment of autoimmune disease” (Hoffmann-La Roche Inc., priority 2020, dated 2025).
# Target: T1, human TLR7 (Homo sapiens, UniProt Q9NYK1)
# T1 sequence (Q9NYK1 27-1049): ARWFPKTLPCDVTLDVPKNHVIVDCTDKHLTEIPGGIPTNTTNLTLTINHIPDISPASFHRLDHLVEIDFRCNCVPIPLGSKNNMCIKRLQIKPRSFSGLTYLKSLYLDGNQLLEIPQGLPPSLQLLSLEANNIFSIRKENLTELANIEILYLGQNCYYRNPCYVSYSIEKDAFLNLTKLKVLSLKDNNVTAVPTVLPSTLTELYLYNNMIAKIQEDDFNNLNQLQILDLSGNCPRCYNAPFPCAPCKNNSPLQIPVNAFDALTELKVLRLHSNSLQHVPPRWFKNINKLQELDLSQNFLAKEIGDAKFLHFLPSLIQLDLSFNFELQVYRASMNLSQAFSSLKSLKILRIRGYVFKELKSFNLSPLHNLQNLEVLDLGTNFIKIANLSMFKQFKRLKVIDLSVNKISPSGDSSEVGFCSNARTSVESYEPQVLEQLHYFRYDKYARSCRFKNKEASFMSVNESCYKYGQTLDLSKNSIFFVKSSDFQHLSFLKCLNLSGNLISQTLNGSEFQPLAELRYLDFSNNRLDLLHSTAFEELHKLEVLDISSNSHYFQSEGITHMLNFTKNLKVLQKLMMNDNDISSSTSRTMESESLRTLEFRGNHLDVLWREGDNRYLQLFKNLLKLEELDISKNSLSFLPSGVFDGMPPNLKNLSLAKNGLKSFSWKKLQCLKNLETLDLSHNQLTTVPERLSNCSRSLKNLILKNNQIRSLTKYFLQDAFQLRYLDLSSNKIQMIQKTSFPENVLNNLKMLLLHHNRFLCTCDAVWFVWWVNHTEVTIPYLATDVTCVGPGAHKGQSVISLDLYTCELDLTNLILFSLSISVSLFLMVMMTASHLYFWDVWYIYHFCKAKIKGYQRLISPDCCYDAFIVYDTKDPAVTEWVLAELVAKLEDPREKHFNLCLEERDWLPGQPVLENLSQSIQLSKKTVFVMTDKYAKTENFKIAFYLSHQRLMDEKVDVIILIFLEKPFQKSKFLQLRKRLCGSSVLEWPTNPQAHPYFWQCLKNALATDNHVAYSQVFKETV
# Assay: HEK293-Blue-hTLR-7 cells assay
# Type: cell-based
# Settings: HEK293-Blue-hTLR7 cells, R848 stimulation, 20 hrs, SEAP reporter; read-out: HEK/hTLR7 IC50
# Excerpt: HEK293-Blue-hTLR-7 cells assay:
# A stable HEK293-Blue-hTLR-7 cell line was purchased from InvivoGen (Cat. #: hkb-htlr7, San Diego, California, USA). These cells were originally designed for studying the stimulation of human TLR7 by monitoring the activation of NF-κB. A SEAP (secreted embryonic alkaline phosphatase) reporter gene was placed under the control of the IFN-β minimal promoter fused to five NF-κB and AP-1-binding sites. The SEAP was induced by activating NF-κB and AP-1 via stimulating HEK-Blue hTLR7 cells with TLR7 ligands. Therefore the reporter expression was declined by TLR7 antagonist under the stimulation of a ligand, such as R848 (Resiquimod), for incubation of 20 hrs. The cell culture supernatant SEAP reporter activity was determined using QUANTI-Blue™ kit (Cat. #: rep-qb1, Invivogen, San Diego, Ca, USA) at a wavelength of 640 nm, a detection medium that turns purple or blue in the presence of alkaline phosphatase.
# HEK293-Blue-hTLR7 cells were incubated at a density of 250,000˜450,000 cells/mL in a volume of 170 μL in a 96-well plate in Dulbecco's Modified Eagle's medium (DMEM) containing 4.5 g/L glucose, 50 U/mL penicillin, […], […], 2 mM L-glutamine, 10% (v/v) heat-inactivated fetal bovine serum with addition of 20 μL test compound in a serial dilution in the presence of final DMSO at 1% and 10 μL of 20 uM R848 in above DMEM, perform incubation under 37° C. in a CO2 incubator for 20 hrs. Then 20 μL of the supernatant from each well was incubated with 180 μL Quanti-blue substrate solution at 37° C. for 2 hrs and the absorbance was read at 620˜655 nm using a spectrophotometer. The signaling pathway that TLR7 activation leads to downstream NF-κB activation has been widely accepted, and therefore similar reporter assay was modified for evaluating TLR7 antagonist.
row,IC50 [µM],Compound
1,0.013,"C[C@@H]1CN(c2ccc(C#N)n3ncc(F)c23)C[C@H](CN2CC3(C2)OCc2cc(N4CC(C)(N)C4)cnc23)O1 [Example 33, 4-[(2S,6R)-2-[[3-(3-amino-3-methyl-azetidin-1-yl)spiro[5H-furo[3,4-b]pyridine-7,3′-azetidine]-1′-yl]methyl]-6-methyl-morpholin-4-yl]-3-fluoro-pyrazolo[1,5-a]pyridine-7-carbonitrile]"
2,0.005,"C[C@@H]1CN(c2ccc(C#N)n3ncc(F)c23)C[C@H](CN2CC3(C2)OCc2cc(N4CC(N)C4)ccc23)O1 [Example 9, 4-[(2S,6R)-2-[[6-(3-aminoazetidin-1-yl)spiro[1H-isobenzofuran-3,3′-azetidine]-1′-yl]methyl]-6-methyl-morpholin-4-yl]-3-fluoro-pyrazolo[1,5-a]pyridine-7-carbonitrile]"
3,0.015,"[2H]c1ccc2c(N3C[C@H](CN4CC5(C4)OCc4cc(N6C[C@H]7NCCO[C@@H]7C6)ccc45)O[C@H](C)C3)ccc(C#N)c2n1 [Example 17, 5-[(2S,6R)-2-[[6-[(4aR,7aR)-3,4,4a,5,7,7a-hexahydro-2H-pyrrolo[3,4-b][1,4]oxazin-6-yl]spiro[1H-isobenzofuran-3,3′-azetidine]-1′-yl]methyl]-6-methyl-morpholin-4-yl]-2-deuterio-quinoline-8-carbonitrile]"
4,0.007,"[2H]c1ccc2c(N3C[C@H](CN4CC5(C4)OCc4cc(N6CC(C)(N)C6)cnc45)O[C@H](C)C3)ccc(C#N)c2n1 [Example 21, 5-[(2S,6R)-2-[[3-(3-amino-3-methyl-azetidin-1-yl)spiro[5H-furo[3,4-b]pyridine-7,3′-azetidine]-1′-yl]methyl]-6-methyl-morpholin-4-yl]-2-deuterio-quinoline-8-carbonitrile]"
5,0.012,"C[C@@H]1CN(c2ccc(C#N)n3ncc(F)c23)C[C@H](CN2CC3(C2)OCc2cc(N4CC(C)(N)C4)ccc23)O1 [Example 1, 4-[(2S,6R)-2-[[6-(3-amino-3-methyl-azetidin-1-yl)spiro[1H-isobenzofuran-3,3′-azetidine]-1′-yl]methyl]-6-methyl-morpholin-4-yl]-3-fluoro-pyrazolo[1,5-a]pyridine-7-carbonitrile]"
6,0.007,"[2H]c1ccc2c(N3C[C@H](CN4CC5(C4)OCc4cc(N6CCNCC6)ccc45)O[C@H](C)C3)ccc(C#N)c2n1 [Example 18, 2-deuterio-5-[(2R,6S)-2-methyl-6-[(6-piperazin-1-ylspiro[1H-isobenzofuran-3,3′-azetidine]-1′-yl)methyl]morpholin-4-yl]quinoline-8-carbonitrile]"
7,0.007,"[2H]c1ccc2c(N3C[C@H](CN4CC5(C4)OCc4cc(N6C[C@H]7NCCO[C@@H]7C6)ncc45)O[C@H](C)C3)ccc(C#N)c2n1 [Example 28, 5-[(2S,6R)-2-[[6-[(4aR,7aR)-3,4,4a,5,7,7a-hexahydro-2H-pyrrolo[3,4-b][1,4]oxazin-6-yl]spiro[1H-furo[3,4-c]pyridine-3,3′-azetidine]-1′-yl]methyl]-6-methyl-morpholin-4-yl]-2-deuterio-quinoline-8-carbonitrile]"
8,0.008,"C[C@@H]1CN(c2ccc(C#N)n3ncc(F)c23)C[C@H](CN2CC3(C2)OCc2cc(N4CCNCC4)ccc23)O1 [Example 6, 3-fluoro-4-[(2R,6S)-2-methyl-6-[(6-piperazin-1-ylspiro[1H-isobenzofuran-3,3′-azetidine]-1′-yl)methyl]morpholin-4-yl]pyrazolo[1,5-a]pyridine-7-carbonitrile]"
9,0.016,"C[C@@H]1CN(c2ccc(C#N)n3ncc(F)c23)C[C@H](CN2CC3(C2)OCc2cc(N4CC(C)(N)C4)ncc23)O1 [Example 24, 4-[(2S,6R)-2-[[6-(3-amino-3-methyl-azetidin-1-yl)spiro[1H-furo[3,4-c]pyridine-3,3′-azetidine]-1′-yl]methyl]-6-methyl-morpholin-4-yl]-3-fluoro-pyrazolo[1,5-a]pyridine-7-carbonitrile]"
10,0.024,"C[C@@H]1CN(c2ccc(C#N)n3nccc23)C[C@H](CN2CC3(C2)OCc2cc(N4CC(C)(N)C4)cnc23)O1 [Example 26, 4-[(2S,6R)-2-[[3-(3-amino-3-methyl-azetidin-1-yl)spiro[5H-furo[3,4-b]pyridine-7,3′-azetidine]-1′-yl]methyl]-6-methyl-morpholin-4-yl]pyrazolo[1,5-a]pyridine-7-carbonitrile]"
11,0.019,"C[C@@H]1CN(c2ccc(C#N)n3nccc23)C[C@H](CN2CC3(C2)OCc2cc(N4CC(N)C4)ccc23)O1 [Example 19, 4-[(2S,6R)-2-[[6-(3-aminoazetidin-1-yl)spiro[1H-isobenzofuran-3,3′-azetidine]-1′-yl]methyl]-6-methyl-morpholin-4-yl]pyrazolo[1,5-a]pyridine-7-carbonitrile]"
12,0.01,"C[C@@H]1CN(c2ccc(C#N)n3ncc(F)c23)C[C@H](CN2CC3(C2)OCc2cc(N4CC5(CNC5)C4)ccc23)O1 [Example 12, 4-[(2S,6R)-2-[[6-(2,6-diazaspiro[3.3]heptan-2-yl)spiro[1H-isobenzofuran-3,3′-azetidine]-1′-yl]methyl]-6-methyl-morpholin-4-yl]-3-fluoro-pyrazolo[1,5-a]pyridine-7-carbonitrile]"
13,0.007,"[2H]c1ccc2c(N3C[C@H](CN4CC5(C4)OCc4cc(N6C[C@@H](N)[C@H](OC)C6)cnc45)O[C@H](C)C3)ccc(C#N)c2n1 [Example 31, 5-[(2S,6R)-2-[[3-[(3R,4R)-3-amino-4-methoxy-pyrrolidin-1-yl]spiro[5H-furo[3,4-b]pyridine-7,3′-azetidine]-1′-yl]methyl]-6-methyl-morpholin-4-yl]-2-deuterio-quinoline-8-carbonitrile]"
14,0.02,"C[C@@H]1CN(c2ccc(C#N)n3ncc(F)c23)C[C@H](CN2CC3(C2)OCc2cc(N[C@H]4CNC[C@H]4F)ccc23)O1 [Example 3, 3-fluoro-4-[(2S,6R)-2-[[6-[[(3S,4R)-4-fluoropyrrolidin-3-yl]amino]spiro[1H-isobenzofuran-3,3′-azetidine]-1′-yl]methyl]-6-methyl-morpholin-4-yl]pyrazolo[1,5-a]pyridine-7-carbonitrile]"
15,0.019,"C[C@@H]1CN(c2ccc(C#N)n3ncc(F)c23)C[C@H](CN2CC3(C2)OCc2cc(N4CC[C@](C)(N)C4)ccc23)O1 [Example 5, 4-[(2S,6R)-2-[[6-[(3S)-3-amino-3-methyl-pyrrolidin-1-yl]spiro[1H-isobenzofuran-3,3′-azetidine]-1′-yl]methyl]-6-methyl-morpholin-4-yl]-3-fluoro-pyrazolo[1,5-a]pyridine-7-carbonitrile]"
16,0.004,"[2H]c1ccc2c(N3C[C@H](CN4CC5(C4)OCc4cc(N6CC(N)C6)ncc45)O[C@H](C)C3)ccc(C#N)c2n1 [Example 32, 5-[(2S,6R)-2-[[6-(3-aminoazetidin-1-yl)spiro[1H-furo[3,4-c]pyridine-3,3′-azetidine]-1′-yl]methyl]-6-methyl-morpholin-4-yl]-2-deuterio-quinoline-8-carbonitrile]"
17,0.016,"C[C@@H]1CN(c2ccc(C#N)n3ncc(F)c23)C[C@H](CN2CC3(C2)OCc2cc(N4CC5(CNCCO5)C4)ccc23)O1 [Example 4, 3-fluoro-4-[(2R,6S)-2-methyl-6-[[6-(5-oxa-2,8-diazaspiro[3.5]nonan-2-yl)spiro[1H-isobenzofuran-3,3′-azetidine]-1′-yl]methyl]morpholin-4-yl]pyrazolo[1,5-a]pyridine-7-carbonitrile]"
